Consider two substances from patent US20120016009A1, “Optimized Methods For Delivery Of DSRNA Targeting The PCSK9 Gene” (priority 2008, published 2012).

The subject of data set [1] is PCSK9 mRNA. Kind of data set: PCSK9 siRNA screening in HepG2 cells (lipofectamine 2000 transfection, PCSK9 mRNA by Quantigene, normalized to GAP-DH). Type of data set: cell-based, human. In short, it runs like this:
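HepG2 cells, grown in MEM with 10% fetal calf serum, antibiotics, non-essential amino acids and sodium pyruvate at 37° C. and 5% CO2, were plated at 2.0×10^4 cells/well in 96-well plates and transfected directly with siRNA using lipofectamine 2000. After 24 hours, cells were lysed and PCSK9 mRNA was measured by Quantigene and normalized to GAP-DH mRNA.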

Data set [2] has as its system primary human blood monocytes (hPBMC). Kind of data set: IFN-alpha induction in primary human blood monocytes (hPBMC). Type of data set: cell-based. The note with it: for IFN-α Induction: first word of the cell IFN-α/TNF-α Induction (Yes/No); for IFN-alpha induction: human primary blood monocytes. How it is done:
(§1) siRNAs were tested for activation of the immune system in primary human blood monocytes (hPBMC). […] However, chemically modified versions of this sequence (AD-1a2, AD-1a3, AD-1a5, and AD-1a4) as well as AD-2a1 were negative for both IFN-alpha and TNF-alpha induction in these same assays (see Table 5, and FIGS. 13A and 13B). Thus chemical modifications are capable of dampening both IFN-alpha and TNF-alpha responses to siRNA molecules.

A short description of data set [3]: IFN-alpha activation in mice, siRNA formulated into liposomes. Type of data set: in vivo, mouse.
In data set [4] the test system is primary human blood monocytes (hPBMC). Kind of data set: TNF-alpha induction in primary human blood monocytes (hPBMC). Type of data set: cell-based. The following applies: for TNF-alpha induction: human primary blood monocytes; for TNF-α Induction: second word of the cell IFN-α/TNF-α Induction (Yes/No). As for the experimental part:
as §1

Data set [5] concerns PCSK9 mRNA. Kind of data set: PCSK9 silencing in primary cynomolgus monkey hepatocytes (dilution series from 30 nM, PCSK9/GAPDH mRNA). In kind it is cell-based. As for the experimental part: Primary cynomolgus monkey hepatocytes (cryopreserved) were obtained from In vitro Technologies, Inc. (Baltimore, Md., USA, cat No M00305) and cultured in InVitroGRO CP Medium (cat No Z99029) at 37° C. in an atmosphere with 5% CO2 in a humidified incubator.
For transfection with siRNA, primary cynomolgus monkey cells were seeded on Collagen coated plates (Fisher Scientific, cat. No. 08-774-5) at a density of 3.5×10^4 cells/well in 96-well plates and transfected directly. Transfection of siRNA (eight 2-fold dilution series starting from 30 nM) in duplicates was carried out with lipofectamine 2000 (Invitrogen GmbH, Karlsruhe, Germany, cat. No. 11668-019) as described by the manufacturer.
16 hours after transfection medium was changed to fresh InVitroGRO CP Medium with Torpedo Antibiotic Mix (In vitro Technologies, Inc, cat. No Z99000) added.
24 hours after medium change primary cynomolgus monkey cells were lysed and PCSK9 mRNA levels were quantified with the Quantigene Explore Kit (Genosprectra, Dumbarton Circle Fremont, USA, cat. No. QG-000-02) according to the protocol. PCSK9 mRNA levels were normalized to GAPDH mRNA. Normalized PCSK9/GAPDH ratios were then compared to PCSK9/GAPDH ratio of lipofectamine 2000 only control.

Data set [6] is described as follows: siRNA stability in human serum at 37° C., HPLC analysis. In kind it is in vitro ADME. As for the experimental part: (§2) Phosphorothioate modifications at the 3′ ends of both sense and antisense strands of a dsRNA can protect against exonucleases. 2′OMe and 2′F modifications in both the sense and antisense strands of a dsRNA can protect against endonucleases. AD-1a2 (see Table 5b) contains 2′OMe modifications on both the sense and antisense strands. Experiments were performed to determine if the inherent stability (as measured by siRNA stability in human serum) or the degree or type of chemical modification (2′OMe versus 2′F or a mixture) was related to either the observed rat efficacy or the duration of silencing effects. Stability of siRNAs with the same AD-1a2 core sequence, but containing different chemical modifications were created and tested for activity in vitro in primary Cyno monkey hepatocytes. A series of these molecules that maintained similar activity as measured by in vitro IC50 values for PCSK9 silencing (Table 5b), were then tested for their stability against exo and endonuclease cleavage in human serum. Each duplex was incubated in human serum at 37° C. (a time course), and subjected to HPLC analysis. […] Sequences AD-1a3, AD-1a5, and AD-1a4, which were more heavily modified (see chemical modifications in Table 5) all had T ½'s greater than 24 hours. […] Blood was collected from animals at various days post-dose, and total cholesterol concentrations were measured. […]

The next data set has as its system PCSK9. In words: Total serum cholesterol in rats after LNP01 formulated PCSK9 siRNA (duration of action). In kind it is in vivo, rat. The following applies: versus PBS or control siRNA. As for the experimental part: Rats were treated via tail vein injection with 5 mg/kg of LNP01-10792 (Formulated ALDP-10792). Blood was drawn at the indicated time points (see Table 3) and the amount of total cholesterol compared to PBS treated animals was measured by standard means. Total cholesterol levels decreased at day two ˜60% and returned to baseline by day 28.
To test if acute silencing of the PCSK9 transcript by a PCSK9 siRNA (and subsequent PCSK9 protein down-regulation), would result in acutely lower total cholesterol levels, siRNA molecule AD-1a2 (AD-10792) was formulated in an LNP01 lipidoid formulation. Liposomal formulated siRNA duplex AD-1a2 (LNP01-1a2) was injected via tail vein in low volumes (˜0.2 ml for mouse and ˜1.0 ml for rats) at different doses into C57/BL6 mice or Sprague Dawley rats.
Down-modulation of total cholesterol in rats has been historically difficult as cholesterol levels remain unchanged even at high doses of HMG-CoA reductase inhibitors. […] Rats were dosed with a single injection of LNP01-a2 via tail vein at 1, 2.5 and 5 mg/kg. Liver tissue and blood were harvested 72 hours post-injection. […] The mRNA silencing was associate with an acute ˜50-60% decrease of serum total cholesterol (FIGS. 10A and 10B) lasting 10 days, with a gradual return to pre-dose levels by ˜3 weeks (FIG. 10B).
as §2

Data set [7] has as its system PCSK9 mRNA. In words: In vitro screening of modified dsRNAs targeted to PCSK9 (Table 2b; cell type not given). Type of data set: cell-based. The note with it: 30 nM siRNA. An outline of the steps: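 siRNA at 30 nM (single-dose screen) was transfected with lipofectamine 2000 into cells seeded at 2.0×10^4/well. After 24 h, cells were lysed and PCSK9 mRNA measured by Quantigene, normalized to GAPDH (n=8). Values are % remaining PCSK9 mRNA relative to cells given an unrelated control siRNA.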

The mark [8] stands for this setting: PCSK9 silencing in primary cynomolgus monkey hepatocytes, approximate IC50, read-out: Primary Cynomolgus Monkey Hepatocytes ~IC50.
Setting [9] is: primary cynomolgus monkey hepatocytes, read-out: IC50 in Cynomolgous monkey Hepatocyte [nM]s.

In the oligonucleotide strings, read from the 5' end, every base follows the letter of its sugar. An asterisk marks phosphorothioate; unmarked linkages are phosphodiester. Other units and linkages are bracketed, terminal groups are in braces. A string of capitals states the bases alone. d = 2'-deoxy (DNA); m = 2'-O-methyl; r = 2'-OH (RNA)

With “AD-9680: dsRNA targeting the PCSK9 gene at 3530-3548; sense SEQ ID NO:1227, antisense SEQ ID NO:1228 (sense mUmUmCmUrArGrAmCmCmUrGmUmUmUmUrGmCmUmUdT*dT; antisense rArArGmCrArArArAmCrArGrGrUrCmUrArGrArAdT*dT)”, the IC50 – broadly, the point on the concentration scale where inhibition reaches its midpoint – in the data set with PCSK9 mRNA [1] came to 100 pM. Also, the “Mean percent remaining mRNA transcript at siRNA concentration/in cell type 3 nM/HepG2” value with PCSK9 mRNA [1] (3 nM siRNA) is 22%. Moreover, the “Mean percent remaining mRNA transcript at siRNA concentration/in cell type 30 nM/HepG2” value in the data set with PCSK9 mRNA [1] (30 nM siRNA) is recorded as 12%. In data set [2], the “IFN-α Induction” value is recorded as “No/No” and the IFN-alpha induction result is “negative”. Also, the “IFN-alpha activation in mice” value in data set [3] was “neither AD-1a2, nor AD-2a1 activated IFN-alpha”. Also, in data set [4], the TNF-alpha induction entry is listed as “negative” and the “TNF-α Induction” value was “No/No”. Besides, in the data set on PCSK9 mRNA [5] (setting [8]), the IC50 was 0.07 to 0.2 nM. Besides, in the data set with PCSK9 mRNA [5] (setting [9]), the IC50 was 0.1 nM. For the same substance, the “activity in vitro in primary monkey hepatocytes” value with PCSK9 mRNA [5] is reported as “highly active”.

Regarding “AD-10792: 2′OMe modified dsRNA targeting PCSK9 at 1091-1109, SEQ ID NO:1305/1306 (chain 1 rGmCmCmUrGrGrArGmUmUmUrAmUmUmCrGrGrArAdT*dT; chain 2 rUrUrCrCrGrArAmUrArArArCrUrCmCrArGrGrCdT*dT)”, the “T ½ in pooled human serum” value in data set [6] was roughly 7 h. Further, in the data set on PCSK9, the “decrease of total cholesterol day 2 post-dose” value is roughly 60%. The “Remaining mRNA in % of controls at siRNA conc. of 30 nM” value with PCSK9 mRNA [7] came out at 15%. The IC50 is 100 pM with PCSK9 mRNA [1], 0.07 to 0.2 nM in the data set with PCSK9 mRNA [5] (setting [8]) and 0.1 nM in the data set with PCSK9 mRNA [5] (setting [9]). The “IFN-α Induction” value in data set [2] was “No/No”. For the same substance, the IFN-alpha induction result in data set [2] (listed as AD-1a2) was “negative”. Moreover, the “IFN-alpha activation in mice” value in data set [3] is listed as “neither AD-1a2, nor AD-2a1 activated IFN-alpha”. Besides, in data set [4] (listed as AD-1a2), the TNF-alpha induction result was “negative”. The “TNF-α Induction” value in data set [4] is “No/No”. Further, in the data set with PCSK9 mRNA [5], the “activity in vitro in primary monkey hepatocytes” value is given as “active in vitro”.
